Assay results published in patent US20040198673A1, “Composition for epigallocatechin gallate” (priority 2001, published 2004).

Experiment: Agway test of powder flowability (glass funnel, 11-mm opening)
Format: physicochemical
Conditions: 100 g, 11-mm funnel opening
Description: Granulated EGCG was compared with EGCG powder (the starting material for granulation) for powder flowability using the Agway test. In that test, flowability is determined by placing 100 gram of the granules in a glass funnel with a 11-mm opening, which is sealed temporarily. The measurement is started by releasing the seal. Flowability is determined as the time for the entire powder to flow through the funnel in seconds per 100 g of granule.

Substance: (−)-epigallocatechin gallate [EGCG powder]
- Powder flowability (result in words): did not flow
